The values that follow come from PubChem BioAssay (NCI).

Each structure is given as a SMILES string. “And” between values parts separate entries of the source, which are not always exact repeats. Equal values may be shown once.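 All cell lines were grown in 96-well plates and treated with compound for 48 hours. Abbreviation: GI50, concentration required for 50% inhibition of growth. Definition used: TGI = concentration required for complete inhibition of growth.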 Where only a bound is given, the exact number is not on record here.

Test systems include CAKI-1 renal; CCRF-CEM leukemia; HOP-62 NSCLC; HOP-92 NSCLC; NCI-H460 lung; SF-539 CNS; SK-MEL-28 melanoma; SN12C renal; U251 CNS; HL-60(TB) leukemia.
Assay in all cases: NCI tumour cell line growth inhibition, 48 h

For `C[CH2][Ge]([CH2]C)([CH2]C)[O]C(=O)C(OC(C)=O)c1ccccc1` (stereo not given), the GI50 is more than 100 µM with CAKI-1 renal; 24.1 µM with CCRF-CEM leukemia; more than 100 µM in the experiment on HOP-62 NSCLC; 57.9 µM with HOP-92 NSCLC; more than 100 µM in the experiment on NCI-H460 lung; more than 100 µM with SF-539 CNS. In addition, the GI50 in the experiment with SK-MEL-28 melanoma, in the experiment on SN12C renal and with U251 CNS was more than 100 µM each time. Also, the TGI in the experiment with CAKI-1 renal, in the experiment on CCRF-CEM leukemia, with HOP-62 NSCLC, in the experiment on HOP-92 NSCLC, in the experiment with NCI-H460 lung and in the experiment on SF-539 CNS was more than 100 µM throughout. The TGI with SK-MEL-28 melanoma, in the experiment on SN12C renal and in the experiment on U251 CNS was more than 100 µM in each case.

Turning to `COC12C=C/C(=C(/C(=O)OCc3ccccn3)C(=O)CCCCCCCCC3(OC)C=C/C(=C(/C(=O)OCc4ccccn4)C(=O)CCCCCCCC1)O3)O2`, the GI50 in the experiment with CAKI-1 renal is 0.481 µM; in the experiment on HL-60(TB) leukemia, 0.306 µM; with HOP-62 NSCLC, 0.318 µM; with HOP-92 NSCLC, 1.65 µM; in the experiment with SF-539 CNS, 0.557 µM; in the experiment on SK-MEL-28 melanoma, 0.481 µM. Further, the GI50 in the experiment on SN12C renal is 0.356 µM; with U251 CNS, 0.386 µM. The TGI in the experiment with CAKI-1 renal is 3.4 µM; in the experiment on HL-60(TB) leukemia it was 2.17 µM; in the experiment with HOP-62 NSCLC, 1.06 µM; in the experiment with HOP-92 NSCLC, 3.54 µM; with SF-539 CNS it was 3.2 µM; in the experiment with SK-MEL-28 melanoma, 3.62 µM. Moreover, the TGI with SN12C renal was 1.21 µM; in the experiment on U251 CNS, 1.52 µM.

Consider `CN(c1ccc(C(=O)c2ccc(N(C)S(C)(=O)=O)cc2)cc1)S(C)(=O)=O`, for which the TGI in the experiment with CAKI-1 renal, with CCRF-CEM leukemia, with HL-60(TB) leukemia, in the experiment on HOP-92 NSCLC, with NCI-H460 lung and in the experiment with SK-MEL-28 melanoma was more than 100 µM throughout. Besides, the TGI in the experiment on SN12C renal and with U251 CNS was more than 100 µM throughout.

Regarding `C=C/C=C/[C@@H](O)CC(=C)C[C@H]1OC2[C@H](C)[C@@H](OC(=O)C[C@H]3C[C@H](OC(C)=O)C[C@@]4(C[C@@](C)(O)C[C@H](CC(=C)[C@@H](C)[C@H](OC(C)=O)[C@H](C)C(=O)C[C@@H]5C[C@H](OC)CC6(C[C@@H](O)C[C@H](/C=C\CCC[C@H]7O[C@](O)(C=C[C@H]7C)[C@H]2O)O6)O5)O4)O3)[C@@H]1O`, the GI50 in the experiment with CAKI-1 renal is 0.00538 µM and 0.0025 µM; in the experiment on CCRF-CEM leukemia, 0.0025 µM; in the experiment on HOP-62 NSCLC, 0.000252 µM and 0.0025 µM; with HOP-92 NSCLC it was 0.0227 µM and 0.0025 µM; in the experiment with NCI-H460 lung, 0.000798 µM and 0.0025 µM; in the experiment with SF-539 CNS, less than 0.0025 µM. In addition, the GI50 in the experiment on SN12C renal was 0.000339 µM and 0.0025 µM. The TGI in the experiment with CCRF-CEM leukemia was more than 25 µM; in the experiment with HOP-62 NSCLC it was more than 25 µM; in the experiment with HOP-92 NSCLC, 15.1 µM; in the experiment on NCI-H460 lung, 0.00529 µM; with SF-539 CNS, less than 0.0025 µM; in the experiment on SK-MEL-28 melanoma, more than 25 µM. In the experiment on U251 CNS, this compound registered a TGI of more than 25 µM.

As for `CNC(=O)c1c(NC(=O)c2ccc(C(C)(C)C)cc2)sc2c(CN(C)C)c(O)ccc12`, the GI50 is 1.68 µM with CAKI-1 renal; 1.2 µM with CCRF-CEM leukemia; 1.26 µM in the experiment with HL-60(TB) leukemia; 1.2 µM with HOP-92 NSCLC; 1.14 µM in the experiment with NCI-H460 lung; 1.66 µM with SF-539 CNS. Also, the GI50 in the experiment with SK-MEL-28 melanoma is 1.73 µM. In addition, the TGI in the experiment on CAKI-1 renal is 3.25 µM; in the experiment on CCRF-CEM leukemia, 4.68 µM; in the experiment on HL-60(TB) leukemia it was 3.18 µM; in the experiment with HOP-92 NSCLC, 2.74 µM; in the experiment on NCI-H460 lung, 2.53 µM; with SF-539 CNS it was 3.13 µM. For the same compound, the TGI in the experiment on SK-MEL-28 melanoma stood at 3.19 µM.

`Cc1cccc(C)c1NC(=O)C1=NC(=S)NC(c2ccccc2)C1c1nc2ccccc2s1` (stereo not given): the TGI in the experiment on CAKI-1 renal, in the experiment with CCRF-CEM leukemia, with HL-60(TB) leukemia, in the experiment with HOP-92 NSCLC, in the experiment on NCI-H460 lung and in the experiment with SF-539 CNS was more than 100 µM each time. In addition, the TGI in the experiment with SK-MEL-28 melanoma, with SN12C renal and in the experiment with U251 CNS was more than 100 µM in each case.

As for `NC(=O)c1cc([N+](=O)[O-])c(Cl)c([N+](=O)[O-])c1Cl`, the GI50 in the experiment on CAKI-1 renal was 1.84 µM; in the experiment on CCRF-CEM leukemia, 0.4 µM; with HOP-62 NSCLC it was 1.75 µM; in the experiment with HOP-92 NSCLC it was 1.84 µM; in the experiment with NCI-H460 lung, 1.74 µM; in the experiment on SF-539 CNS it was 1.99 µM. Moreover, the GI50 was 1.74 µM in the experiment with SK-MEL-28 melanoma, 1.75 µM in the experiment on SN12C renal and 1.2 µM with U251 CNS. Further, the TGI in the experiment on CAKI-1 renal stood at 3.72 µM; in the experiment on CCRF-CEM leukemia, 2.38 µM; in the experiment on HOP-62 NSCLC, 3.16 µM; in the experiment with HOP-92 NSCLC, 3.45 µM; in the experiment on NCI-H460 lung, 3.49 µM; in the experiment on SF-539 CNS, 3.79 µM. Further, the TGI in the experiment with SK-MEL-28 melanoma was 3.15 µM; in the experiment on SN12C renal, 3.27 µM; with U251 CNS it was 2.49 µM.

Consider `O=C(CCCN1CCC(O)(c2ccc(Cl)cc2)CC1)c1ccc(F)cc1`, for which the TGI was 23.4 µM with CAKI-1 renal; more than 100 µM in the experiment with CCRF-CEM leukemia; more than 100 µM in the experiment on HOP-62 NSCLC; more than 100 µM in the experiment on HOP-92 NSCLC; 45.1 µM in the experiment on NCI-H460 lung; 60.3 µM with SF-539 CNS. For the same compound, the TGI is 36.9 µM in the experiment on SK-MEL-28 melanoma, more than 100 µM with SN12C renal and 41.1 µM in the experiment on U251 CNS.

As to `Cc1csc2[n+]1-c1ccccc1N(C(=O)Nc1ccccc1)C(C)C2` (stereo not given), the GI50 in the experiment on CAKI-1 renal was 84.9 µM; in the experiment with CCRF-CEM leukemia, 29.5 µM; with HOP-62 NSCLC it was 41.9 µM; in the experiment on HOP-92 NSCLC, 41.7 µM; in the experiment on NCI-H460 lung it was 81 µM; in the experiment on SK-MEL-28 melanoma, more than 100 µM. The results for the GI50 with SN12C renal and in the experiment with U251 CNS were more than 100 µM and 69.4 µM, respectively. The TGI was more than 100 µM with CAKI-1 renal; 69.6 µM in the experiment with CCRF-CEM leukemia; more than 100 µM in the experiment on HOP-62 NSCLC; more than 100 µM in the experiment on HOP-92 NSCLC; more than 100 µM with NCI-H460 lung; more than 100 µM with SK-MEL-28 melanoma. Moreover, the TGI in the experiment on SN12C renal and in the experiment with U251 CNS was more than 100 µM in each case.

For the compound `CC(C)(C)c1ccc(Oc2ccc(N)cn2)cc1`, the GI50 in the experiment on CAKI-1 renal was 21 µM; in the experiment with CCRF-CEM leukemia, 1.06 µM; in the experiment with HL-60(TB) leukemia, 0.545 µM; with HOP-62 NSCLC, more than 100 µM; with NCI-H460 lung, 72.3 µM; in the experiment with SF-539 CNS, 18.8 µM. The results for the GI50 in the experiment on SK-MEL-28 melanoma, with SN12C renal and in the experiment on U251 CNS were 75.9 µM, 4.64 µM and 49.2 µM, respectively. The TGI in the experiment on CAKI-1 renal is more than 100 µM; in the experiment with CCRF-CEM leukemia, more than 100 µM; in the experiment on HL-60(TB) leukemia, 17.4 µM; in the experiment with HOP-62 NSCLC it was more than 100 µM; in the experiment with NCI-H460 lung, more than 100 µM; in the experiment on SF-539 CNS, more than 100 µM. For the same compound, the TGI in the experiment on SK-MEL-28 melanoma, in the experiment on SN12C renal and with U251 CNS was more than 100 µM each time.
